Activity calls are given as the source filed them. No rule for the calls is given here.

For one assay, the target named is Prostaglandin E2 receptor EP2 subtype (Homo sapiens) (UniProt P43116). Briefly: compounds shifting PGE2 potency at EP2 – cell-based, human EP2, PGE2 EC50 shift, dose response (AID 1421). The conditions noted are these: EP2-expressing cells, PGE2 EC50 shift by compound.
Sequence of Prostaglandin E2 receptor EP2 subtype (Homo sapiens) (P43116 whole entry, looked up): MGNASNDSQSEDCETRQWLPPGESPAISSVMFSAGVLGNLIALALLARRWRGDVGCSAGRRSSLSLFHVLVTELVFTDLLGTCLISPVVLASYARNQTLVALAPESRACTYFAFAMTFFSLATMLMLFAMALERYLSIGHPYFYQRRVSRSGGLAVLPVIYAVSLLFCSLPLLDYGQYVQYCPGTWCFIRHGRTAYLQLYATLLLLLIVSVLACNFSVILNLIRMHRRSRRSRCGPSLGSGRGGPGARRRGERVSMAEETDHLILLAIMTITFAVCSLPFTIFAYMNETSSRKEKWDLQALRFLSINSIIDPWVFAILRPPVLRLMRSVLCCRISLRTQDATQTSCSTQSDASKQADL
Turning to `CC1CCN(c2ccccc2NC(=O)c2ccc(C#N)cc2F)CC1`, the result was active.

As to `CC(C)OC(=O)c1c(NC(=O)c2ccco2)sc2c1CCCCC2`, the outcome was active.

Consider `O=C(Nc1ccccc1Cl)N1CCSc2ccccc21`, for which the outcome was active.

In the case of `NC(=NCCC[C@H](N)C(=O)O)N[N+](=O)[O-]`, the outcome was active.

For the compound `CCOC(=O)c1c(NC(=O)c2ccc(-n3cnnn3)cc2)sc2c1CCCC2`, the outcome was active.

For the compound `Cc1ccc(Cn2c(=O)n(Cc3ccco3)c(=O)c3ccccc32)cc1`, the outcome was active.

`Cc1cc(C)cc(C(=N)c2ccccc2Cc2cccc3ccccc23)c1`: the result was active.

As for `C(=N\N(Cc1ccccc1)c1ccccc1)/c1cccnc1`, the outcome was active.

As to `CC(=O)N(Cc1cccs1)Cc1cc2ccc(C)c(C)c2nc1Cl`, the outcome was active.

For the compound `CCOc1ccccc1NC1c2ccccc2C(=O)N1c1ccc(C)cn1` (configuration not stated), the result was active.

Consider `CCc1nc(N2CCCCC2)c2oc3ccccc3c2n1`, for which the result was active.

Consider `CCn1c2c(c3cc(OCC(C)C)ccc31)CCCC2=O`, for which the result was active.

The assay is the same for the next values; noted with them: EP2-expressing cells, PGE2 EC50 shift by compound; measured here: PGE2 EC50 at 6.7 uM compound.
Consider `CC1CCN(c2ccccc2NC(=O)c2ccc(C#N)cc2F)CC1`, for which the PGE2 EC50 with compound turned out to be 0.93 nM.

With `CC(C)OC(=O)c1c(NC(=O)c2ccco2)sc2c1CCCCC2`, the PGE2 EC50 with compound amounted to 0.74 nM.

For `CCN(CC)S(=O)(=O)c1c(OC)cc(C)c(Cl)c1C`, the PGE2 EC50 with compound stood at 2.56 nM.

In the case of `Cc1cc(C)c(S(=O)(=O)c2ccccc2)c(OC(=O)c2c(Cl)cc(Cl)cc2Cl)n1`, the PGE2 EC50 with compound came to 1.27 nM.

Turning to `Cc1cc(O)c(C=O)c2c1C(=O)Oc1c(COC(=O)/C=C/C(=O)O)c(O)c(C(=O)O)c(C)c1O2`, the PGE2 EC50 with compound worked out at 0.54 nM.

For `COC(=O)c1c(NC(=O)Cc2cccs2)sc2c1CCC(C)C2` (configuration not stated), the PGE2 EC50 with compound was 0.94 nM.

Regarding `Cc1ccccc1Cn1c(-c2cncs2)nc2ccccc21`, the PGE2 EC50 with compound worked out at 2.57 nM.

For `CN(C)Cc1ccccc1Sc1cccc2ccccc12`, the PGE2 EC50 with compound turned out to be 1.07 nM.

Regarding `CCOc1ccc(-c2nn3c(-c4ccccc4)nnc3s2)cc1`, the PGE2 EC50 with compound was found to be 1.04 nM.

In the case of `CCOC(=O)c1c(NC(=O)CN2CCCCC2)sc2c1CCN(C(=O)OCC)C2`, the PGE2 EC50 with compound was determined as 0.9 nM.

For the compound `CC(Sc1nc2ccccc2n1C)C(=O)NC(c1ccccc1)c1ccccc1` (configuration not stated), the PGE2 EC50 with compound is 1.24 nM.

In the case of `O=C(Nc1ccccc1Cl)N1CCSc2ccccc21`, the PGE2 EC50 with compound came out at 1.55 nM.

Consider `O=c1c2ccccc2n(Cc2ccc(Cl)cc2)c(=O)n1Cc1ccco1`, for which the PGE2 EC50 with compound came out at 0.82 nM.

`CCOc1ccc2cc(C#N)c(SCC(=O)NC(C)CC)nc2c1` (configuration not stated): the PGE2 EC50 with compound was determined as 1.36 nM.

For the compound `O=C(Nc1ccc2c(c1)OCO2)c1cccc2c1C(=O)N(C1CCCCC1)C2`, the PGE2 EC50 with compound was found to be 0.8 nM.

`Cc1cc(-c2sccc2C)nc(-n2cccc2)n1`: the PGE2 EC50 with compound stood at 2.5 nM.

As to `Clc1ccc(-c2ccc(/C=N/Nc3cc(N4CCOCC4)nc(N4CCOCC4)n3)o2)cc1`, the PGE2 EC50 with compound came to 2.85 nM.

With `NC(=NCCC[C@H](N)C(=O)O)N[N+](=O)[O-]`, the PGE2 EC50 with compound stood at 1.93 nM.

Consider `CCc1nc(SCC(=O)Nc2nc3c(s2)CCCC3)c2ccccc2n1`, for which the PGE2 EC50 with compound worked out at 1.51 nM.

Take `Cc1nc(SCCC(=O)O)c2ccccc2n1`: the PGE2 EC50 with compound was found to be 2.93 nM.

Regarding `CN1C(=O)/C(=C/c2ccccc2OCc2cccc(F)c2)N(C)C1=S`, the PGE2 EC50 with compound worked out at 0.81 nM.

In the case of `CCOC(=O)C1=NN(c2cccc(C)c2)C2(S1)SC(C(C)=O)=C(C)N2c1ccccc1` (configuration not stated), the PGE2 EC50 with compound came to 0.31 nM.

For `CCOC(=O)c1c(NC(=O)c2ccc(-n3cnnn3)cc2)sc2c1CCCC2`, the PGE2 EC50 with compound amounted to 0.85 nM.

For `c1cncc(-c2nc(N3CCOCC3)c3c4c(sc3n2)CCC4)c1`, the PGE2 EC50 with compound is 1.15 nM.

With `NC(=O)c1sc2nc(N3CCCCC3)c3c(c2c1N)CCCC3`, the PGE2 EC50 with compound was 2.62 nM.

For `O=C(OCc1ccccc1Cl)c1ccccc1C(=O)c1ccccc1`, the PGE2 EC50 with compound stood at 1.13 nM.

For the compound `O=C(O)CCCN1C(=O)/C(=C\c2ccco2)SC1=S`, the PGE2 EC50 with compound is 1.07 nM.

Take `Cc1ccc(Cn2c(=O)n(Cc3ccco3)c(=O)c3ccccc32)cc1`: the PGE2 EC50 with compound is 0.78 nM.

Regarding `Cc1cc(C)cc(C(=N)c2ccccc2Cc2cccc3ccccc23)c1`, the PGE2 EC50 with compound came to 1.22 nM.

Turning to `CCOCC(=O)Nc1cc(C(F)(F)F)ccc1Oc1cccc(Br)c1`, the PGE2 EC50 with compound was 0.49 nM.

As for `C(=N\N(Cc1ccccc1)c1ccccc1)/c1cccnc1`, the PGE2 EC50 with compound came to 1.34 nM.

As for `N#CC1(Cc2ccccc2Cl)c2ccccc2C=CN1C(=O)c1ccccc1` (configuration not stated), the PGE2 EC50 with compound stood at 1.54 nM.

With `O=C(c1ccco1)N1N=C(c2ccc(Br)cc2)CC1(O)C(F)(F)F` (configuration not stated), the PGE2 EC50 with compound worked out at 0.84 nM.

As for `c1ccc(Cn2c(-c3ccccc3)nc3nc4ccccc4nc32)cc1`, the PGE2 EC50 with compound came out at 1.08 nM.

Take `CCSC1=N/C(=C\c2ccccc2)C(=O)N1c1ccc(OC)cc1`: the PGE2 EC50 with compound came to 0.75 nM.

As to `O=S(=O)(c1cccs1)N1CN(Cc2cccs2)c2nc3ccccc3nc21`, the PGE2 EC50 with compound amounted to 1.64 nM.

Take `CCOC(=O)C(C)Sc1ncc(OC)c(Sc2ccc(Cl)cc2)n1` (configuration not stated): the PGE2 EC50 with compound was 0.67 nM.

As to `O=C(CO/N=C/c1ccccc1)N1c2ccccc2Oc2ccccc21`, the PGE2 EC50 with compound came out at 1.45 nM.

As to `COc1ccc(C2=Nn3c(nnc3-c3ccccc3OC)SC2)cc1OC`, the PGE2 EC50 with compound was 0.93 nM.

On to `O=c1c2ccccc2nc(/C=C/c2ccccc2)n1CCc1ccccc1`, for which the PGE2 EC50 with compound came to 0.92 nM.

On to `C/C(CCC(C)C)=N\NC(=S)NCc1ccccc1`, for which the PGE2 EC50 with compound was determined as 0.88 nM.

For the compound `Cc1sc2ncnc(SCc3ccco3)c2c1C`, the PGE2 EC50 with compound came to 1.33 nM.

For `Cc1cccc(-n2c(=S)[nH]c3c(oc4ccccc43)c2=O)c1`, the PGE2 EC50 with compound was determined as 2.78 nM.

Turning to `CC(C)Cc1nc2sc3c(=O)[nH]cnc3c2c2c1CCC2`, the PGE2 EC50 with compound stood at 1.48 nM.

For the compound `CCOC(=O)c1c(NC(=O)CN(CC)CC)sc2c1CCN(C(=O)OCC)C2`, the PGE2 EC50 with compound stood at 1.34 nM.

`N#Cc1c(N)nc2c3c(sc(=N)c2c1N)NC(=O)CC3c1c(F)cccc1Cl` (configuration not stated): the PGE2 EC50 with compound came to 0.74 nM.

For the compound `C/C=C/Cn1c(SCc2ccc(C)cc2)nc2c1c(=O)[nH]c(=O)n2C`, the PGE2 EC50 with compound turned out to be 0.78 nM.

For the compound `O=C(c1ccccc1)N1N=C(c2ccccc2)CC1c1ccccc1O` (configuration not stated), the PGE2 EC50 with compound was found to be 1.14 nM.

Take `CC(=O)N(Cc1cccs1)Cc1cc2ccc(C)c(C)c2nc1Cl`: the PGE2 EC50 with compound was determined as 1.01 nM.

`CCOc1ccccc1NC1c2ccccc2C(=O)N1c1ccc(C)cn1` (configuration not stated): the PGE2 EC50 with compound was 0.89 nM.

As for `O=C(CSCc1cccc(Cl)c1)Nc1ccccc1-c1ccccc1`, the PGE2 EC50 with compound came out at 0.74 nM.

In the case of `CC(=O)Nc1sc2c(c1C(c1cccs1)N1CCOCC1)CCCC2` (configuration not stated), the PGE2 EC50 with compound is 0.99 nM.

Turning to `Cc1ccc(-c2nn3c(C)nnc3s2)cc1NCc1c(F)cccc1Cl`, the PGE2 EC50 with compound came to 0.91 nM.

As to `CSc1nc(Oc2ccccc2)c2sccc2n1`, the PGE2 EC50 with compound came out at 0.93 nM.

Consider `CN=C1CC(SC)=C1c1ccc(C)cc1`, for which the PGE2 EC50 with compound worked out at 0.84 nM.

As for `O=C(CSc1nc(Cc2ccccc2)nc2ccccc12)c1ccc2c(c1)OCCO2`, the PGE2 EC50 with compound stood at 1.23 nM.

In the case of `O=C(Nc1ccccc1Oc1ccccc1)c1cnccn1`, the PGE2 EC50 with compound stood at 0.78 nM.

Consider `Cc1ccc(C2CC2c2n[nH]c(=S)n2-c2ccc(C)cc2)cc1` (configuration not stated), for which the PGE2 EC50 with compound was 1.12 nM.

For the compound `COc1ccc(OCC(=O)NC(=S)Nc2ccc3c4c(cccc24)CC3)cc1`, the PGE2 EC50 with compound is 2.85 nM.

Take `CC(C)n1c2ccccc2c2nnc(SCC(=O)Nc3ccccc3C(=O)O)nc21`: the PGE2 EC50 with compound came to 2.65 nM.

As for `CCc1nc(N2CCCCC2)c2oc3ccccc3c2n1`, the PGE2 EC50 with compound stood at 0.8 nM.

For `COC(=O)c1c(NC(=O)CSc2nnc(-c3cccnc3)n2Cc2ccco2)sc(C)c1C`, the PGE2 EC50 with compound is 0.79 nM.

For the compound `COc1cc(OC)cc(-c2nc(N)n[nH]2)c1`, the PGE2 EC50 with compound is 0.8 nM.

As to `COc1ccccc1CN(C)CC(=O)Nc1ccccc1-c1ccccc1`, the PGE2 EC50 with compound stood at 1.43 nM.

In the case of `CCOC(=O)c1c(-c2ccc(C)cc2)csc1NC(=O)CCN1CCOCC1`, the PGE2 EC50 with compound amounted to 1.21 nM.

Consider `COc1ccc(OC)c(C2=Nn3c(nnc3-c3ccco3)SC2)c1`, for which the PGE2 EC50 with compound worked out at 0.93 nM.

Take `CC(C)Cc1nc(SCc2cccnc2)c2c(=O)n(C)c(=O)n(C)c2n1`: the PGE2 EC50 with compound was 0.67 nM.

Turning to `CCCn1cnc2sc(CC)cc2c1=O`, the PGE2 EC50 with compound was 1.25 nM.

As for `Cc1ccccc1Cn1c2ccccc2c2cn[nH]c(=O)c21`, the PGE2 EC50 with compound was determined as 1.15 nM.

Consider `CC1=NN(c2ccc(S(=O)(=O)O)cc2)C(=O)/C1=C\c1ccc(Cl)cc1`, for which the PGE2 EC50 with compound was determined as 1.07 nM.

Take `CCOP(=O)(OCC)c1nc(-c2ccc(Cl)cc2)oc1NCc1ccccc1`: the PGE2 EC50 with compound was 0.73 nM.

For the compound `CCn1c2c(c3cc(OCC(C)C)ccc31)CCCC2=O`, the PGE2 EC50 with compound turned out to be 1.09 nM.

As for `Cc1cc(C)c2nc(N3CCCN(C(=O)c4ccco4)CC3)c(C#N)cc2c1`, the PGE2 EC50 with compound is 0.64 nM.

As to `Cc1cc(NC(=O)c2cc(-c3ccncc3)nc3c(C)cccc23)no1`, the PGE2 EC50 with compound was found to be 1.16 nM.

For `O=C1C2C3c4ccccc4C(c4ccccc43)C2c2nc3ccccc3n21` (configuration not stated), the PGE2 EC50 with compound came out at 1.4 nM.

Take `COc1ccc2c(C)cc(SCC(=O)Nc3ncc(Cl)cc3Cl)nc2c1`: the PGE2 EC50 with compound is 1.52 nM.

Turning to `Cc1ccc(-c2nc3ccccc3nc2Cl)cc1`, the PGE2 EC50 with compound is 0.49 nM.

As for `Cc1ccc(Oc2nc(-c3ccccc3)ncc2S(C)(=O)=O)cc1`, the PGE2 EC50 with compound was determined as 1.12 nM.

For `CC(=O)c1cc(C#N)c(SCc2ccccc2)nc1C`, the PGE2 EC50 with compound turned out to be 0.83 nM.

For `CC1=CC(C)(C)N2C(=O)C3(SCC(=O)N3c3ccc(F)cc3)c3cc(C)cc1c32` (configuration not stated), the PGE2 EC50 with compound stood at 1.12 nM.

`NS(=O)(=O)c1ccc(NCc2cnc3ccccc3n2)cc1`: the PGE2 EC50 with compound is 0.64 nM.

For `CCOP(=O)(OCC)c1nc(-c2cccc3ccccc23)oc1NCc1ccccc1`, the PGE2 EC50 with compound was 2.48 nM.

With `S=c1[nH]nc(-c2ccc(Br)o2)n1Cc1ccccc1`, the PGE2 EC50 with compound stood at 1.34 nM.

`CCOC(=O)c1c(NC(=O)c2ccncc2)sc(C)c1C`: the PGE2 EC50 with compound was 1 nM.

`CC1=C(/C=C/C(C)=C/C=C/C(C)=C/C(=O)O)C(C)(C)CCC1`: the PGE2 EC50 with compound was determined as 1.19 nM.

Regarding `CCCCc1nc2sc3c(SCC(=O)NCc4ccco4)ncnc3c2c2c1CCC2`, the PGE2 EC50 with compound was determined as 2.5 nM.

Take `CCOP(=O)(OCC)c1nc(/C=C/c2ccccc2)oc1NCc1ccccc1`: the PGE2 EC50 with compound is 1.27 nM.

Consider `CCCSc1nc(N2CCCC2)c2c(c1C#N)CC(C)(C)OC2`, for which the PGE2 EC50 with compound was 1.15 nM.

`CCN1C(c2ccccc2)C(C)C(=O)C(C)C1c1ccccc1` (configuration not stated): the PGE2 EC50 with compound amounted to 0.85 nM.

Regarding `N#Cc1c(-c2ccco2)nc(SCc2ccc(F)cc2)[nH]c1=O`, the PGE2 EC50 with compound came out at 2.86 nM.
